From patent US5583147A, “Amides for the treatment of atherosclerosis” (The Dupont Merck Pharmaceutical Company, priority 1994, dated 1996) come the findings set out here.

Each structure is given as a SMILES string.

In the test the target is T1, Acyl-CoA: Cholesterol Acyltransferase (ACAT) (Rattus norvegicus, UniProt Q7TQM4).
T1 construct: centrifuged at 105,000×g for 1 hour to pellet the microsomes; from tissue; host or cells: liver microsomes of male Sprague Dawley rats
T1 sequence (Q7TQM4 1-524): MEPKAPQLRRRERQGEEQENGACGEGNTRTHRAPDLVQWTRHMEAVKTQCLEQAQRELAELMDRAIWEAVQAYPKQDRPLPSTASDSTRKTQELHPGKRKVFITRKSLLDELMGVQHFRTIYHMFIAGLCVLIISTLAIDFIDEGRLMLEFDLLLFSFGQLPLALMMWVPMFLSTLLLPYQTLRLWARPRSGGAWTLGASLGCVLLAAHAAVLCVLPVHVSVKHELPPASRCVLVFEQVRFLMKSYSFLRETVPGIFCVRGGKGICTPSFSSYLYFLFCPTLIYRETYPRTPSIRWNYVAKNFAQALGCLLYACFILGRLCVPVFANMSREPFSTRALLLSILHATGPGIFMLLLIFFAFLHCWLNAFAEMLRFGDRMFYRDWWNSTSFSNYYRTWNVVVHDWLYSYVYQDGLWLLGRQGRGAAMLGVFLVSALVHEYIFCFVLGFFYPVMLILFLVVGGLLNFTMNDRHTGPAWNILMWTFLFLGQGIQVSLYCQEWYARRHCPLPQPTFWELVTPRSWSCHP
The test is described as follows: Inhibition of Acyl-CoA: Cholesterol Acyltransferase (ACAT) in Hepatic Microsomes (In Vitro Assay). The format is biochemical, rat (male Sprague Dawley). Particulars: 75 μM 14C-oleoyl-CoA, pH 7.4, 37° C., 10 min, read-out: ACAT Inhibitory Activity (In Vitro) (IC50). The procedure:
A. Assay of the Inhibition of Acyl-CoA: Cholesterol Acyltransferase (ACAT) in Hepatic Microsomes (In Vitro Assay)
The ability of the compounds to inhibit ACAT, the enzyme responsible for the intracellular synthesis of cholesteryl esters, was tested as follows. Male Sprague Dawley rats weighing 150-300 g, were fed rat chow ad libitum. The animals were fasted for twenty-four hours prior to being euthanized by CO2. The livers were perfused in situ with 50 ml of cold 0.25 sucrose, excised, and homogenized in three volumes of 0.1M phosphate buffer, pH 7.4, that contained 0.5 mM EDTA (ethylenediamine-tetraacetic acid), 1.0 mM glutathione, 0.25M sucrose and […] leupeptin. Microsomes were obtained by differential centrifugation; the supernatant from an initial spin at 15,000×g for 15 minutes was centrifuged at 105,000×g for 1 hour to pellet the microsomes. The microsomes were suspended in homogenization buffer, reisolated by centrifugation, and stored at -70° C. Microsomes were used within one month of preparation.
The control assay in a final volume of 200 μl consisted of 200 μg of microsomal protein, 75 μM ^14 C-oleoyl-CoA (10,000 dpm/nmol) in 0.1M phosphate, pH 7.4, that contained 1 mM glutathione. Compounds were added in 5 μl of DMSO (dimethyl sulfoxide) and additional controls were run with DMSO only. All components, except the oleoyl-CoA, were preincubated for 15 min. at 37° C. prior to the initiation of the reaction by the addition of oleoyl-CoA. The assay was terminated after 10 min by the addition of 4 ml of chloroform:methanol (2:1, v/v). 20,000 dpm of ^3 H-cholesteryl oleate and 10 μg of unlabeled cholesteryl oleate and oleic acid were added as an internal standard and carriers, respectively. After allowing 10 min. for lipid extraction, the samples were centrifuged at 1,000×g for 10 min to separate the solvent layers. The chloroform layer containing the neutral lipids was spotted onto a Baker SI250-Pa silica gel TLC plate and the plate developed using a hexane:diethyl ether:acetic acid (170:30:1) v/v/v) mobile phase. The lipids were visualized by their interaction with iodine vapor and the cholesteryl ester spot was scraped into a scintillation vial and counted. The specific activity of ACAT in the control incubation averaged 260 pmol/min/mg microsomal protein. The data obtained are expressed as the concentration at which ACAT activity is inhibited by 50% (IC50).
As for `CCCCCCSC(C(=O)Nc1c(SC)cc(C)nc1SC)c1ccccc1` (single isomer, unassigned) [Example 41, N-[2,4-bis(methylthio)-6-methyl-3-pyridyl]-L-(+)-α-hexylthio-phenylacetamide], the half-inhibitory concentration (IC50) was below 1000 nM. To `CCCCCCSC(C(=O)Nc1c(C(C)C)cccc1C(C)C)c1ccccc1` (single isomer, unassigned) [Example 42, N-(2,6-diisopropyl-phenyl)-D-(-)-α-hexylthio-phenylacetamide] belongs below 1000 nM; to `CSc1cc(C)nc(SC)c1NC(=O)C(SCc1ccccc1)c1ccccc1` (single isomer, unassigned) [Example 46, N-[2,4-bis(methylthio)-6-methyl-3-pyridyl]-D-(-)-α-benzylthio-phenylacetamide], below 1000 nM. As for `CSc1cc(C)nc(SC)c1NC(=O)C(SCc1ccccc1)c1ccccc1` (single isomer, unassigned) [Example 47, N-[2,4-bis(methylthio)-6-methyl-3-pyridyl]-L-(+)-α-benzylthio-phenylacetamide], the figure is below 1000 nM; as for `CC(C)c1cccc(C(C)C)c1NC(=O)C(SCc1ccccc1)c1ccccc1` (single isomer, unassigned) [Example 48, N-(2,6-diisopropyl-phenyl)-D-(-)-α-benzylthio-phenylacetamide], below 1000 nM; as for `CCSC(C(=O)Nc1c(SC)cc(C)nc1SC)c1ccccc1` (single isomer, unassigned) [Example 49, N-[2,4-bis(methylthio)-6-methyl-3-pyridyl]-D-(-)-α-ethylthio-phenylacetamide], below 1000 nM. In the case of `CCSC(C(=O)Nc1c(SC)cc(C)nc1SC)c1ccccc1` (single isomer, unassigned) [Example 50, N-[2,4-bis(methylthio)-6-methyl-3-pyridyl]-L-(+)-α-ethylthio-phenylacetamide], the IC50 is below 1000 nM. For `CSc1cc(C)nc(SC)c1NC(=O)C(Sc1ccccc1)c1ccccc1` (single isomer, unassigned) [Example 63, N-[2,4-his (methylthio)-6-methyl-3-pyridyl]-L-(+)-α-phenylthio-phenylacetamide], the 50% inhibitory concentration (IC50) was below 1000 nM. Turning to `CC(C)c1cccc(C(C)C)c1NC(=O)C(Sc1ccccc1)c1ccccc1` (single isomer, unassigned) [Example 64], the IC50 was in the range of 1000 to 10000 nM. As for `CCCCCCSC(C(=O)Nc1c(SC)cc(C)nc1SC)c1ccc(Cl)cc1` (stereo not drawn) [Example 85, N-[2,4-bis(methylthio)-6-methyl-3-pyridyl]-α-hexylthio-4-chloro-phenylacetamide], the 50% inhibitory concentration (IC50) was below 1000 nM.

Turning to `CSc1cc(C)nc(SC)c1NC(=O)C(SCc1ccccc1)c1ccc(Cl)cc1` (stereo not drawn) [Example 89, N-[2,4-bis(methylthio)-6-methyl-3-pyridyl]-α-benzylthio-4-chloro-phenylacetamide], the half-inhibitory concentration (IC50) was below 1000 nM. As to `COc1ccc(CSC(C(=O)Nc2c(SC)cc(C)nc2SC)c2ccc(Cl)cc2)cc1` (stereo not drawn) [Example 90, N-[2,4-bis(methylthio)-6-methyl-3-pyridyl]-α-(4-methoxy-benzylthio)-4-chloro-phenylacetamide], the IC50 was below 1000 nM.

Turning to `CSc1cc(C)nc(SC)c1NC(=O)C(SCc1ccc(F)cc1)c1ccc(Cl)cc1` (stereo not drawn) [Example 91, N-[2,4-bis(methylthio)-6-methyl-3-pyridyl]-α-(4-fluoro-benzylthio)-4-chloro-phenylacetamide], the half-maximal inhibitory concentration (IC50) is below 1000 nM. In the case of `CSc1cc(C)nc(SC)c1NC(=O)C(SCc1ccc(Cl)cc1)c1ccc(Cl)cc1` (stereo not drawn) [Example 92, N-[2,4-bis(methylthio)-6-methyl-3-pyridyl]-α-(4-chloro-benzylthio)-4-chloro-phenylacetamide], the half-maximal inhibitory concentration (IC50) was below 1000 nM. To `CSc1cc(C)nc(SC)c1NC(=O)C(Sc1ccccc1)c1ccc(Cl)cc1` (stereo not drawn) [Example 102, N-[2,4-bis(methylthio)-6-methyl-3-pyridyl]-α-phenylthio-4-chloro-phenylacetamide] belongs below 1000 nM; to `COc1ccc(SC(C(=O)Nc2c(SC)cc(C)nc2SC)c2ccc(Cl)cc2)cc1` (stereo not drawn) [Example 103, N-[2,4-bis(methylthio)-6-methyl-3-pyridyl]-α-(4-methoxy-phenylthio)-4-chloro-phenylacetamide], below 1000 nM; to `CSc1cc(C)nc(SC)c1NC(=O)C(Sc1ccc(F)cc1)c1ccc(Cl)cc1` (stereo not drawn) [Example 104, N-[2,4-bis(methylthio)-6-methyl-3-pyridyl]-α-(4-fluoro-phenylthio)-4-chloro-phenylacetamide], below 1000 nM. To `CCCCCCSC(C(=O)Nc1c(SC)cc(C)nc1SC)c1ccc(OC)cc1` (stereo not drawn) [Example 118, N-[2,4-bis(methylthio)-6-methyl-3-pyridyl]-α-hexylthio-4-methoxy-phenylacetamide] belongs below 1000 nM; to `COc1ccc(C(SCc2ccccc2)C(=O)Nc2c(SC)cc(C)nc2SC)cc1` (stereo not drawn) [Example 122, N-[2,4-bis(methylthio)-6-methyl-3-pyridyl]-α-benzylthio-4-methoxy-phenylacetamide], below 1000 nM. To `COc1ccc(C(SCc2ccc(Cl)cc2)C(=O)Nc2c(SC)cc(C)nc2SC)cc1` (stereo not drawn) [Example 123, N-[2,4-bis(methylthio)-6-methyl-3-pyridyl]-α-(4-chloro-benzylthio)-4-methoxy-phenylacetamide] belongs below 1000 nM. Regarding `COc1ccc(C(SCc2ccc(F)cc2)C(=O)Nc2c(SC)cc(C)nc2SC)cc1` (stereo not drawn) [Example 124, N-[2,4-bis(methylthio)-6-methyl-3-pyridyl]-α-(4-fluoro-benzylthio)-4-methoxy-phenylacetamide], the half-maximal inhibitory concentration (IC50) was below 1000 nM.

Regarding `COc1ccc(CSC(C(=O)Nc2c(SC)cc(C)nc2SC)c2ccc(OC)cc2)cc1` (stereo not drawn) [Example 125, N-[2,4-bis(methylthio)-6-methyl-3-pyridyl]-α-(4-methoxy-benzylthio)-4-methoxy-phenylacetamide], the half-inhibitory concentration (IC50) is below 1000 nM. As to `COc1ccc(C(Sc2ccccc2)C(=O)Nc2c(SC)cc(C)nc2SC)cc1` (stereo not drawn) [Example 135, N-[2,4-bis(methylthio)-6-methyl-3-pyridyl]-α-phenylthio-4-methoxy-phenylacetamide], the IC50 is below 1000 nM.

Regarding `COc1ccc(C(Sc2ccc(F)cc2)C(=O)Nc2c(SC)cc(C)nc2SC)cc1` (stereo not drawn) [Example 136, N-[2,4-bis(methylthio)-6-methyl-3-pyridyl]-α-(4-fluoro-phenylthio)-4-methoxy-phenylacetamide], the IC50 was below 1000 nM.

For `COc1ccc(SC(C(=O)Nc2c(SC)cc(C)nc2SC)c2ccc(OC)cc2)cc1` (stereo not drawn) [Example 137, N-[2,4-bis(methylthio)-6-methyl-3-pyridyl]-α-(4-methoxy-phenylthio)-4-methoxy-phenylacetamide], the IC50 is below 1000 nM. Take `COc1ccc(C(OC)C(=O)Nc2c(SC)cc(C)nc2SC)cc1` (stereo not drawn) [Example 146, N-[2,4-bis(methylthio)-6-methyl-3-pyridyl]-α-O-methyl-4-methoxymandeloamide]: the IC50 lay within 1000 to 10000 nM.

Regarding `COc1ccc(C(OC)C(=O)Nc2c(C(C)C)cccc2C(C)C)cc1` (stereo not drawn) [Example 147, N-(2,6-diisopropyl-phenyl)-α-O-methyl-4-methoxymandeloamide], the half-inhibitory concentration (IC50) is 1000 to 10000 nM. Consider `CCCCCCSC(C(=O)Nc1c(SC)cc(C)nc1SC)c1ccc(F)cc1` (stereo not drawn) [Example 148, N-[2,4-bis(methylthio)-6-methyl-3-pyridyl]-α-hexylthio-4-fluoro-phenylacetamide], for which the half-maximal inhibitory concentration (IC50) was below 1000 nM. In the case of `CSc1cc(C)nc(SC)c1NC(=O)C(SCc1ccccc1)c1ccc(F)cc1` (stereo not drawn) [Example 152, N-[2,4-bis(methylthio)-6-methyl-3-pyridyl]-α-benzylthio-4-fluoro-phenylacetamide], the IC50 is below 1000 nM.

The term IC50 denotes the concentration that inhibits the measured activity by half.
